One test has as its target T1, HMG-CoA reductase (Homo sapiens, UniProt P04035).
T1 sequence (P04035 1-888): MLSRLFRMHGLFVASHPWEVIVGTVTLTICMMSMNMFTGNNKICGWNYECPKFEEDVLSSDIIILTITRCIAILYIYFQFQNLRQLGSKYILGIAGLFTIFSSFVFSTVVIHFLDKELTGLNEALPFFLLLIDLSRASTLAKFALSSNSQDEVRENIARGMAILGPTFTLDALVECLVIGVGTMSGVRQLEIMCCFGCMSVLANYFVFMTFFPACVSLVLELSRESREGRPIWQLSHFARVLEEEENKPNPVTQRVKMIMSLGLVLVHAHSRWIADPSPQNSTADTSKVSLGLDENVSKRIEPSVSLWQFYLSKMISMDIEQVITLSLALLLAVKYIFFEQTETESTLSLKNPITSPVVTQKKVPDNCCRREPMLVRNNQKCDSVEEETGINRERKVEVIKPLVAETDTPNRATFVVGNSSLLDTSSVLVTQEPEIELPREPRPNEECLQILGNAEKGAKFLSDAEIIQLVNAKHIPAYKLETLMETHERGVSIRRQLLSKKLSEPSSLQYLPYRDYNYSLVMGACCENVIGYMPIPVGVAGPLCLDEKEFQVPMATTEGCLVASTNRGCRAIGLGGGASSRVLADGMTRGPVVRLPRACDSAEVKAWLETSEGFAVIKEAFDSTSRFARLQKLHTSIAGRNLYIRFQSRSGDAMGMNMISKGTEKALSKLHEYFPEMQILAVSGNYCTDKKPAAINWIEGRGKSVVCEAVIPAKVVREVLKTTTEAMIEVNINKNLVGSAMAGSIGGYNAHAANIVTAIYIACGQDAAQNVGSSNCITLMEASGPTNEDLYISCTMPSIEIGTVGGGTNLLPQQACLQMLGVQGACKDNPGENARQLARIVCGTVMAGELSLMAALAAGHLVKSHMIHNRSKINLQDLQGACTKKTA
Nature of the test: Hepatic HMG-CoA reductase activity in 3-week-old broiler male chickens fed supplemented corn diet. Also noted: preparing subcellular fractions of liver and assay procedures for beta-hydroxy-beta-methylglutaryl coenzyme A (HMG Co-A) reductase; from tissue; host or cells: chicken liver (microsomal fraction). The conditions noted are these: liver; for HMG-CoA Reductase: mean ± SD, N = 9. It is filed as in vivo, chicken. The text has this:
(§1) These responses were attributed to the presence in the small grains of relatively high concentrations of beta-D-glucans and pentosans. A long-standing interest in lipid metabolism prompted us to examine certain lipogenic and cholesterolgenic enzymes in the tissues of these birds. Methods used for handling blood samples, preparing subcellular fractions of liver and assay procedures for beta-hydroxy-beta-methylglutaryl coenzyme A (HMG Co-A) reductase, fatty acid synthetase (FAS), plasma cholesterol and triglycerides and the statistical treatment of the data have been described [Qureshi AA et al. (1980): Regulation of lipid metabolism in chicken livers by dietary cereals, J Nutr 110:388-393].
For large scale preparation of these compounds, 10 grams of the petroleum ether soluble fraction of HPBF were dissolved in 10 ml petroleum ether and applied to a 90×3.5 cm silicic acid column (Bio-Silica, 100-200 mesh). The column was washed with 2,500 ml petroleum ether followed by stepwise elution with increasing amounts of ether in petroleum ether. Fraction 8 of the column corresponded to HPLC fraction 5. A concentration-dependent suppression of HMG Co-A reductase activity and enhancement of FAS activity was noted within this range. Serum total and LDL cholesterol levels also fell in a dose-dependent response. […] In a companion experiment, using the same control birds, the effect of cholesterol inhibitor I at 5 ppm is compared to the effect of the petroleum ether solubles of HPBF at 20% equivalent on weight gain, HMG Co-A reductase and FAS activities, serum cholesterol and serum triglyceride levels (Table 2). […] Serum triglyceride levels reflected the influence of the diet on FAS activity. […] Cholesterol inhibitor I was a more powerful suppressor of LDL cholesterol (Table 2).
^1 Feeding period was 3 weeks; Time of killing was 0800; Data
expressed as mean ± SD; N = 9 chickens per group; HMGCoA reductase =
hydroxy-methyl-Glutaryl-Coenzyme A reductase.
^2 pmoles of mevalonic acid synthesized per minute per mg of […]

Test [1] can be described thus: Serum lipids in 13-week-old WLH male chickens. It is filed as in vivo, chicken. To be noted: 20 ppm in corn diet, fed four weeks.
Description: as §1
Cholesterol inhibitor I was re-chromatographed by HPLC and the UV absorption spectrum obtained. Maximum absorption occurred at 292 nm. This purified fraction was used for high resolution mass spectrometric analysis. Several scans were made using ionization temperatures from 90-180 degrees Centigrade to increase the possibility of detecting impurities. The high resolution mass spectrometric analysis and measurements of different peaks gave a molecular ion peak at m/e 424 and main peaks at m/e 385, 205 and 165 corresponding to C29 H44 O2 (molecular formula) C25 H36 O2, C13 H17 O2 and C10 H13 O2 moieties, respectively, which are characteristic fragmentation moieties for d-alpha-tocotrienol. Lemon grass oil is a rich source of d-alpha-tocotrienol. This product and cholesterol inhibitor I at 20 ppm were compared with the petroleum ether soluble fraction of HPBF (20% equivalent HPBF) in a group of older male White Leghorn chickens (Table 3). The results shown on Table 3 confirm those previously recorded for petroleum ether solubles of HPBF and cholestrol inhibitor I. In a final experiment, the effects of cholestrol inhibitor I and lemon grass oil on hepatocyte HMG Co-A reductase and FAS activities were tested. Both components tested in the concentration range 5-100 microgram/ml, produced a concentration-dependent suppression of HMG Co-A reductase and concentration-dependent enhancement of FAS activity (Table 4).
^1 Feeding period was four weeks; Time of killing was 0800; Data
expressed as mean ± SD; N = 8 chickens per group; HMGCoA reductase =

Setting [2] is: 2.5 ppm in corn diet, fed 3 weeks.
[3] abbreviates: 5.0 ppm in corn diet, fed 3 weeks.
Setting [4] is: 10.0 ppm in corn diet, fed 3 weeks.
Where [5] appears, read: 15.0 ppm in corn diet, fed 3 weeks.
Where [6] appears, read: 20.0 ppm in corn diet, fed 3 weeks.

Experimental findings from US4603142A, “Cholesterol lowering method of use” (Wisconsin Alumni Research Foundation, priority 1984, dated 1986) are described below.

On to `CC(C)=CCC/C(C)=C/CC/C(C)=C/CC[C@]1(C)CCc2c(C)c(O)c(C)c(C)c2O1` [Cholesterol inhibitor I, 2,5,7,8-tetramethyl-2 (4,8, 12-trimethyltrideca-3,7, 11-trienyl)chroman-6-ol], for which the “HMG-CoA Reductase, percentage of control” value at HMG-CoA reductase (setting [2]) is 87 Percentage of respective contr; on HMG-CoA reductase (setting [3]), 81 Percentage of respective contr; at HMG-CoA reductase (setting [4]), 73 Percentage of respective contr; on HMG-CoA reductase (setting [5]), 68 Percentage of respective contr; at HMG-CoA reductase (setting [6]), 66 Percentage of respective contr. Besides, the “HMG-CoA Reductase” value is recorded as 172 ± 12 pmoles of mevalonic acid synth at HMG-CoA reductase (setting [2]); 161 ± 12 pmoles of mevalonic acid synth on HMG-CoA reductase (setting [3]); 144 ± 9 pmoles of mevalonic acid synth on HMG-CoA reductase (setting [4]); 135 ± 8 pmoles of mevalonic acid synth on HMG-CoA reductase (setting [5]); 130 ± 6 pmoles of mevalonic acid synth at HMG-CoA reductase (setting [6]); 134 ± 6 pmoles of mevalonic synthesize on HMG-CoA reductase (corn diet + 5 ppm (Table 2)). Besides, the “Concentration in Serum LDL-Chol., percentage of control” value in test [1] is 66 Percentage of respective contr. In addition, the “Concentration in Serum HDL-Chol.” value in test [1] (mean ± SD, N = 8) was found to be 58 ± 3 mg/100 ml. Further, in test [1] (mean ± SD, N = 8), the “Concentration in Serum LDL-Chol.” value amounted to 44 ± 3 mg/100 ml. Further, the “Concentration in Serum Total Cholesterol” value in test [1] (mean ± SD, N = 8) was 103 mg/100 ml.
